Measured values taken from ChEMBL document CHEMBL3046856, “Synthesis and fungicidal activity of novel pimprinine analogues” (2012).

What was measured:
Format in all cases: functional
[1] = tested on: Uromyces viciae-fabae; test: Fungicidal activity against Uromyces viciae-fabae infected compound pre-treated bean leaf pieces assessed as control of disease or pathogen at 100 ppm measured after 5 to 14 days by leaf-piece assay
[2] = tested on: Pythium dissimile; test: Fungicidal activity against Pythium dissimile grown on compound supplemented artificial media assessed as control of disease or pathogen at 20 ppm measured after 5 to 14 days by artificial media assay
[3] = tested on: Alternaria solani; test: Fungicidal activity against Alternaria solani grown on compound supplemented artificial media assessed as control of disease or pathogen at 2 ppm measured after 5 to 14 days by artificial media assay
[4] = tested on: Pythium dissimile; test: Fungicidal activity against Pythium dissimile grown on compound supplemented artificial media assessed as control of disease or pathogen at 2 ppm measured after 5 to 14 days by artificial media assay
[5] = Fungicidal activity against Zymoseptoria tritici infected on compound pre-treated wheat leaf pieces assessed as control of disease or pathogen at 100 ppm measured after 5 to 14 days by leaf-piece assay
[6] = tested on: Alternaria solani; test: Fungicidal activity against Alternaria solani grown on compound supplemented artificial media assessed as control of disease or pathogen at 20 ppm measured after 5 to 14 days by artificial media assay
[7] = tested on: Botrytis cinerea; test: Fungicidal activity against Botryotinia fuckeliana grown on compound supplemented artificial media assessed as control of disease or pathogen at 2 ppm measured after 5 to 14 days by artificial media assay
[8] = tested on: Botrytis cinerea; test: Fungicidal activity against Botryotinia fuckeliana grown on compound supplemented artificial media assessed as control of disease or pathogen at 20 ppm measured after 5 to 14 days by artificial media assay

| SMILES | Activity [1] | Activity [2] | Activity [3] | Activity [4] | Activity [5] | Activity [6] | Activity [7] | Activity [8] |
| --- | --- | --- | --- | --- | --- | --- | --- | --- |
| COC(=O)n1cc(-c2ocnc2Br)c2ccccc21 | 0% | 0% | 0% | 0% | 0% | 0% |  |  |
| COCC(=O)n1cc(-c2ocnc2Br)c2ccccc21 | 77% | 77% | 0% | 0% | 0% | 99% | 0% | 99% |
| Brc1ncoc1-c1cn(CC2CC2)c2ccccc12 | 0% | 55% | 0% | 0% | 0% | 0% | 0% | 0% |
| c1ccc2c(-c3cnco3)c[nH]c2c1 | 0% | 99% | 0% | 0% | 0% | 77% | 0% | 0% |
| Brc1ncoc1-c1c[nH]c2ccccc12 | 77% | 99% | 0% | 0% | 0% | 99% | 0% | 99% |
| Cn1cc(-c2ocnc2Cl)c2ccccc21 | 77% | 0% | 0% | 0% | 0% | 0% | 0% | 0% |
| CCn1cc(-c2ocnc2Cl)c2ccccc21 | 99% | 55% | 0% | 0% | 0% | 0% | 0% | 0% |
| C=CCn1cc(-c2ocnc2Cl)c2ccccc21 | 99% | 0% | 0% | 0% | 0% | 0% | 0% | 0% |
| CC(=O)n1cc(-c2ocnc2Cl)c2ccccc21 | 0% | 0% | 0% | 0% | 0% | 0% | 0% | 0% |
| CCC(=O)n1cc(-c2ocnc2Cl)c2ccccc21 | 0% | 0% | 0% | 0% | 0% | 0% | 0% | 0% |
| CCS(=O)(=O)n1cc(-c2ocnc2Cl)c2ccccc21 | 55% | 27% | 0% | 0% | 0% | 0% | 0% | 0% |
| O=C(CCl)n1cc(-c2ocnc2Cl)c2ccccc21 | 49% | 99% | 0% | 0% | 0% | 55% | 0% | 99% |
| O=C(C(Cl)Cl)n1cc(-c2ocnc2Cl)c2ccccc21 | 0% | 99% | 0% | 0% | 0% | 99% | 0% | 99% |
| O=C(n1cc(-c2ocnc2Cl)c2ccccc21)C(Cl)(Cl)Cl | 55% | 99% | 0% | 0% | 0% | 99% | 0% | 99% |
| CC(Cl)C(=O)n1cc(-c2ocnc2Cl)c2ccccc21 (stereo not given) | 55% | 0% | 0% | 0% | 0% | 55% | 0% | 0% |
| COC(=O)n1cc(-c2ocnc2Cl)c2ccccc21 | 0% | 0% | 0% | 0% | 0% | 0% |  |  |
| COCC(=O)n1cc(-c2ocnc2Cl)c2ccccc21 | 55% | 55% | 0% | 0% | 0% | 99% | 0% | 77% |

| SMILES | Activity [1] | Activity [2] | Activity [3] | Activity [4] | Activity [5] | Activity [6] | Activity [7] | Activity [8] |
| --- | --- | --- | --- | --- | --- | --- | --- | --- |
| CCOC(=O)Cn1cc(-c2ocnc2Cl)c2ccccc21 | 0% | 0% | 0% | 0% | 0% | 0% | 0% | 0% |
| CCOC(=O)C(=O)n1cc(-c2ocnc2Cl)c2ccccc21 | 0% | 77% | 0% | 0% | 33% | 99% | 0% | 99% |
| Fc1ccc(Cn2cc(-c3ocnc3Cl)c3ccccc32)c(F)c1 | 27% | 0% | 0% | 0% | 0% | 0% | 0% | 0% |
| Clc1ncoc1-c1cn(CC2CO2)c2ccccc12 (stereo not given) | 77% | 0% | 0% | 0% | 0% | 0% | 0% | 0% |
| Clc1ncoc1-c1cn(CC2CC2)c2ccccc12 | 55% | 99% | 0% | 0% | 33% | 0% | 0% | 0% |
| Cn1cc(-c2ocnc2Br)c2ccccc21 | 55% | 0% | 0% | 0% | 0% | 0% | 0% | 0% |
| CCn1cc(-c2ocnc2Br)c2ccccc21 | 99% | 55% | 0% | 49% | 0% | 55% | 0% | 0% |
| C=CCn1cc(-c2ocnc2Br)c2ccccc21 | 49% | 0% | 0% | 0% | 18% | 0% | 0% | 27% |
| ClC(Cl)=CCn1cc(-c2ocnc2Br)c2ccccc21 | 0% | 0% | 0% | 0% | 0% | 0% | 0% | 0% |
| CC(=O)n1cc(-c2ocnc2Br)c2ccccc21 | 0% | 0% | 0% | 0% | 0% | 0% | 0% | 0% |
| CCC(=O)n1cc(-c2ocnc2Br)c2ccccc21 | 0% | 0% | 0% | 0% | 0% | 0% | 0% | 0% |
| CCS(=O)(=O)n1cc(-c2ocnc2Br)c2ccccc21 | 0% | 0% | 0% | 0% | 0% | 0% | 0% | 0% |
| O=C(CCl)n1cc(-c2ocnc2Br)c2ccccc21 | 49% | 99% | 27% | 0% | 18% | 99% | 0% | 99% |
| O=C(C(Cl)Cl)n1cc(-c2ocnc2Br)c2ccccc21 | 27% | 77% | 0% | 0% | 0% | 99% | 0% | 99% |
| CC(Cl)C(=O)n1cc(-c2ocnc2Br)c2ccccc21 (stereo not given) | 27% | 0% | 0% | 0% | 0% | 55% | 0% | 0% |
| Clc1ncoc1-c1c[nH]c2ccccc12 [Streptochlorin] | 55% | 99% | 99% | 0% | 36% | 99% | 0% | 99% |
